In patent US20230286970A1, “NOVEL OXADIAZOLE-BASED SELECTIVE HDAC6 INHIBITORS” (ITALFARMACO S.P.A., priority 2020, published 2023):

Columns and labels:
[1] = molecular target: recombinant human HDAC6 (Homo sapiens (Human), UniProt Q9UBN7); experiment: Enzymatic screening, HDAC6 inhibition (fluorogenic FdL_G substrate); type: biochemical
Summary of the method: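 Enzyme was preincubated with compound (8 doses, triplicate, 1% DMSO) in 25 mM Tris-HCl pH 8, 130 mM NaCl, 0.05% Tween-20, 10% glycerol, with BSA. A FLUOR DE LYS-Green substrate was then added, and fluorescence was read after developer plus 2 μM TSA.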

[2] = molecular target: recombinant human HDAC1 (Homo sapiens (Human), UniProt Q13547); experiment: Enzymatic screening, HDAC1 inhibition (fluorogenic FdL_G substrate); type: biochemical
Chain of recombinant human HDAC1 (Q13547 whole entry): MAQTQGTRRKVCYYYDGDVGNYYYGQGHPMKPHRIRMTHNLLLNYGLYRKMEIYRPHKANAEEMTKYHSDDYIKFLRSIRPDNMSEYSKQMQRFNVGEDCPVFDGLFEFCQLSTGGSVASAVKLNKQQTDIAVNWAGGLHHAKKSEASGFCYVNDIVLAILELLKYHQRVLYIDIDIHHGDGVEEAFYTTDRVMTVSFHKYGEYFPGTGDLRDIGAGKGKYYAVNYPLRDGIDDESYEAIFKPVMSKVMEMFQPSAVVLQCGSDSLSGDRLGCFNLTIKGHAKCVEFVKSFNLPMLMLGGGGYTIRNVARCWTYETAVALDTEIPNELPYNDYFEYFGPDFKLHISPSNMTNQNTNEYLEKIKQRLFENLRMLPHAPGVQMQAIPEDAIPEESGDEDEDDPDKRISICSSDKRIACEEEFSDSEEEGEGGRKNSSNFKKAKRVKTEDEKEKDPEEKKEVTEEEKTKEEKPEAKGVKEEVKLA
Summary of the method: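 Recombinant human HDAC1 inhibition was measured fluorometrically using the FLUOR DE LYS-Green (FdL_G) substrate. Compounds at 8 doses (1% DMSO final) in Tris-HCl pH 8 buffer with NaCl, Tween-20 and glycerol were preincubated in triplicate with enzyme and 1 mg/mL BSA, then given substrate. Developer I plus 2 μM TSA was added, and fluorescence read after 25 minutes in the dark.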

Chain of recombinant human HDAC6 (Q9UBN7 whole entry): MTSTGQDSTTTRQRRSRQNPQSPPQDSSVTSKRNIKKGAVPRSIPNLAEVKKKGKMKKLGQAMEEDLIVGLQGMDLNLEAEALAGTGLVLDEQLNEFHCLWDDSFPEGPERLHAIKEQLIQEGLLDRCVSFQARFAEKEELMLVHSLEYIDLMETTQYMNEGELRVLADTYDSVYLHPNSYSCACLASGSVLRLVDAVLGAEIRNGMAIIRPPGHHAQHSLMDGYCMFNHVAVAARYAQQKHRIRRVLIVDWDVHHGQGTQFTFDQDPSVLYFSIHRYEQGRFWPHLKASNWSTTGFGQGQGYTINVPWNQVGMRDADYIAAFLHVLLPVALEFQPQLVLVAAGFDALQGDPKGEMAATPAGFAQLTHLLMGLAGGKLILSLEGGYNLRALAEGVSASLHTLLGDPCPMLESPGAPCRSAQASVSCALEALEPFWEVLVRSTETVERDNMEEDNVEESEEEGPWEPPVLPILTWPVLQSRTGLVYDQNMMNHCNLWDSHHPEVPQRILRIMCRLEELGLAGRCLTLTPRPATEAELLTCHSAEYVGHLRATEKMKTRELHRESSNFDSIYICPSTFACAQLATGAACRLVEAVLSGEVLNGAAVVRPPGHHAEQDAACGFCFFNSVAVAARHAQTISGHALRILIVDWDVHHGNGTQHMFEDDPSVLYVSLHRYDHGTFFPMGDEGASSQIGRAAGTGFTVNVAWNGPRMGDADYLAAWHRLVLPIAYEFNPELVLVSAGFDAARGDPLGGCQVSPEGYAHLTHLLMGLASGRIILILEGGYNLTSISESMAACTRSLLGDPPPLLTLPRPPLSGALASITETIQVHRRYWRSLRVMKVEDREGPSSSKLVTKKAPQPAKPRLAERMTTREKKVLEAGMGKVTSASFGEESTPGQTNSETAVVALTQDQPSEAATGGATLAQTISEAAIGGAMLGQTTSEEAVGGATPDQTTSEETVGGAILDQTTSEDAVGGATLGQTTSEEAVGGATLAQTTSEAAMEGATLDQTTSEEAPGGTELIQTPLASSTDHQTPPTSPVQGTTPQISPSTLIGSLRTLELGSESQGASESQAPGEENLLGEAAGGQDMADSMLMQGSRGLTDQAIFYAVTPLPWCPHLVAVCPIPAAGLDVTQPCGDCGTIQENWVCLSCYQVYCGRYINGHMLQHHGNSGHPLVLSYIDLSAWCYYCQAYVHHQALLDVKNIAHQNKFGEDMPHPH

SMILES | IC50 [1] | IC50 [2]
FC(F)c1nnc(-c2ccc(Cn3nnc(-c4cccc(-c5nc6c([nH]5)CNCC6)c4)n3)c(Cl)c2)o1 [compound 365, 2-[3-chloro-4-[[5-[3-(4,5,6,7-tetrahydro-3H-imidazo[4,5-c]pyridin-2-yl)phenyl]tetrazol-2-yl]methyl]phenyl]-5-(difluoromethyl)-1,3,4-oxadiazole] | 106 nM | > 1e+06 nM
Fc1cc(-c2nnc(C(F)F)o2)cc(F)c1Cn1cc(-c2ccc(CN3CC(C(F)(F)F)C3)cc2)nn1 [compound 214, 2-(3,5-difluoro-4-((4-(4-((3-(trifluoromethyl)azetidin-1-yl)methyl)phenyl)-1H-1,2,3-triazol-1-yl)methyl)phenyl)-5-(difluoromethyl)-1,3,4-oxadiazole] | 151 nM | > 200000 nM
O=C(Nc1cccc(-c2nc(Cc3ccc(-c4nnc(C(F)F)o4)cc3)no2)c1)N1CCOCC1 [compound 228, N-(3-(3-(4-(5-(difluoromethyl)-1,3,4-oxadiazol-2-yl)benzyl)-1,2,4-oxadiazol-5-yl)phenyl)morpholine-4-carboxamide] | 178 nM | > 200000 nM
O=C(Nc1ccc(-c2nnn(Cc3ncc(-c4nnc(C(F)F)o4)cn3)n2)cn1)C(F)F [compound 68, N-(5-(2-((5-(5-(difluoromethyl)-1,3,4-oxadiazol-2-yl)pyrimidin-2-yl)methyl)-2H-tetrazol-5-yl)pyridin-2-yl)-2,2-difluoroacetamide] | 33 nM | > 200000 nM
FC(F)c1nnc(-c2ccc(Cn3nnc(-c4ccc(N5CCNCC5)nc4)n3)cc2)o1 [compound 148, 2-(difluoromethyl)-5-(4-((5-(6-(piperazin-1-yl)pyridin-3-yl)-2H-tetrazol-2-yl)methyl)phenyl)-1,3,4-oxadiazole] | 63 nM | > 200000 nM
CN(Cc1ccc(-c2nc(Cc3ccc(-c4nnc(C(F)F)o4)cc3)no2)cc1)C(=O)C(F)F [compound 259, N-(4-(3-(4-(5-(difluoromethyl)-1,3,4-oxadiazol-2-yl)benzyl)-1,2,4-oxadiazol-5-yl)benzyl)-2,2-difluoro-N-methylacetamide] | 439 nM | > 200000 nM
O=C1NCc2ccc(-c3cn(Cc4ccc(-c5nnc(C(F)F)o5)cc4)cn3)cc21 [compound 294, 6-(1-(4-(5-(difluoromethyl)-1,3,4-oxadiazol-2-yl)benzyl)-1H-imidazol-4-yl)isoindolin-1-one] | 78 nM | > 200000 nM
FC(F)c1nnc(-c2ccc(Cn3nnc(-c4cncc(Br)c4)n3)cc2)o1 [compound 82, 2-(4-((5-(5-bromopyridin-3-yl)-2H-tetrazol-2-yl)methyl)phenyl)-5-(difluoromethyl)-1,3,4-oxadiazole] | 33 nM | > 200000 nM
Nc1ccc(-c2cn(C(Cc3ccc(Cl)cc3)c3ccc(-c4nnc(C(F)F)o4)cc3)nn2)cn1 (centres unmarked) [Compd. 231, 5-(1-(2-(4-chlorophenyl)-1-(4-(5-(difluoromethyl)-1,3,4-oxadiazol-2-yl)phenyl)ethyl)-1H-1,2,3-triazol-4-yl)pyridin-2-amine] | 197 nM | > 200000 nM
CC(C)(C)OC(=O)N1CCC2(C1)C(=O)Nc1ccc(-c3cn(Cc4ccc(-c5nnc(C(F)F)o5)cn4)nn3)cc12 (single isomer, unassigned) [compound 265, tert-butyl 5-[1-({5-[5-(difluoromethyl)-1,3,4-oxadiazol-2-yl]pyridin-2-yl}methyl)-1H-1,2,3-triazol-4-yl]-2-oxo-1,2-dihydrospiro[indole-3,3′-pyrrolidine]-1′-carboxylate] | 26 nM | > 200000 nM
CNc1ncc2cc(-c3cn(Cc4ccc(-c5nnc(C(F)F)o5)cc4F)nn3)ccc2n1 [compound 390, 6-[1-({4-[5-(difluoromethyl)-1,3,4-oxadiazol-2-yl]-2-fluorophenyl}methyl)-1H-1,2,3-triazol-4-yl]-N-methylquinazolin-2-amine] | 116 nM | 1e+06 nM
FC(F)c1nnc(-c2ccc(Cn3nnc(-c4cccc(-c5nc6c([nH]5)CCNC6)c4)n3)nc2)o1 [compound 276, 2-(difluoromethyl)-5-(6-((5-(3-(4,5,6,7-tetrahydro-1H-imidazo[4,5-c]pyridin-2-yl)phenyl)-2H-tetrazol-2-yl)methyl)pyridin-3-yl)-1,3,4-oxadiazole] | 9 nM | 165000 nM
Fc1c(Cn2nnc(-c3cccc(-c4nc5c([nH]4)CCNC5)c3)n2)ccc(-c2nnc(C(F)F)o2)c1F [compound 355, 2-(difluoromethyl)-5-[2,3-difluoro-4-[[5-[3-(4,5,6,7-tetrahydro-1H-imidazo[4,5-c]pyridin-2-yl)phenyl]tetrazol-2-yl]methyl]phenyl]-1,3,4-oxadiazole] | 62 nM | > 1e+06 nM
Nc1nc2ccc(-c3cnn(Cc4ccc(-c5nnc(C(F)F)o5)cc4)c3)cc2s1 [compound 326, 6-(1-(4-(5-(difluoromethyl)-1,3,4-oxadiazol-2-yl)benzyl)-1H-pyrazol-4-yl)benzo[d]thiazol-2-amine] | 219 nM | > 1e+06 nM
O=C1NCc2cc(-c3nnn(Cc4ccc(-c5nnc(C(F)F)o5)cc4)n3)ccc21 [compound 167, 5-(2-(4-(5-(difluoromethyl)-1,3,4-oxadiazol-2-yl)benzyl)-2H-tetrazol-5-yl)isoindolin-1-one] | 79 nM | > 200000 nM
Nc1cccc(-c2nnn(Cc3ccc(-c4nnc(C(F)F)o4)cc3)n2)c1 [compound 129, 3-[2-[[4-[5-(difluoromethyl)-1,3,4-oxadiazol-2-yl]phenyl]methyl]tetrazol-5-yl]aniline] | 50 nM | > 200000 nM
Fc1cc(-c2nnn(Cc3ccc(-c4nnc(C(F)F)o4)cc3)n2)ccc1N1CCNCC1 [compound 224, 2-(difluoromethyl)-5-(4-((5-(3-fluoro-4-(piperazin-1-yl)phenyl)-2H-tetrazol-2-yl)methyl)phenyl)-1,3,4-oxadiazole] | 162 nM | > 200000 nM
Cn1c(N)nc2cc(-c3nnn(Cc4ccc(-c5nnc(C(F)F)o5)c(F)c4)n3)ccc21 [compound 373, 5-[2-[[4-[5-(difluoromethyl)-1,3,4-oxadiazol-2-yl]-3-fluorophenyl]methyl]tetrazol-5-yl]-1-methylbenzimidazol-2-amine] | 26 nM | > 1e+06 nM
FC(F)c1nnc(-c2ccc(Cn3nnc(C4(c5ccccn5)CC4)n3)cc2)o1 [compound 147, 2-(difluoromethyl)-5-(4-((5-(1-(pyridin-2-yl)cyclopropyl)-2H-tetrazol-2-yl)methyl)phenyl)-1,3,4-oxadiazole] | 63 nM | > 200000 nM
CCNc1ccc2cc(-c3nnn(Cc4cc(F)c(-c5nnc(C(F)F)o5)cc4F)n3)ccc2n1 [compound 409, 6-(2-(4-(5-(difluoromethyl)-1,3,4-oxadiazol-2-yl)-2,5-difluorobenzyl)-2H-tetrazol-5-yl)-N-ethylquinolin-2-amine] | 420 nM | 1e+06 nM
FC(F)c1nnc(-c2ccc(Cn3nnc(C4(c5ccccc5)CC4)n3)cc2)o1 [compound 256, 2-(difluoromethyl)-5-(4-((5-(1-phenylcyclopropyl)-2H-tetrazol-2-yl)methyl)phenyl)-1,3,4-oxadiazole] | 393 nM | > 200000 nM
Fc1cc(-c2nnc(C(F)F)o2)c(F)cc1Cn1cnc(-c2ccc(NC3=NCCN3)cc2)c1 [compound 361, N-[4-[1-[[4-[5-(difluoromethyl)-1,3,4-oxadiazol-2-yl]-2,5-difluorophenyl]methyl]imidazol-4-yl]phenyl]-4,5-dihydro-1H-imidazol-2-amine] | 9 nM | > 1e+06 nM
Nc1ccc(-c2cn(Cc3ccc(-c4nnc(C(F)F)o4)cc3)nn2)cc1 [compound 121, 4-(1-(4-(5-(difluoromethyl)-1,3,4-oxadiazol-2-yl)benzyl)-1H-1,2,3-triazol-4-yl)aniline] | 45 nM | > 200000 nM
Nc1cc2cc(-c3cn(Cc4ccc(-c5nnc(C(F)F)o5)cc4F)nn3)ccc2cn1 [compound 405, 6-[1-({4-[5-(difluoromethyl)-1,3,4-oxadiazol-2-yl]-2-fluorophenyl}methyl)-1H-1,2,3-triazol-4-yl]isoquinolin-3-amine] | 59 nM | 1e+06 nM
O=C1NCCc2ccc(-c3nnn(Cc4ccc(-c5nnc(C(F)F)o5)cc4)n3)cc21 [compound 83, 7-[2-[[4-[5-(difluoromethyl)-1,3,4-oxadiazol-2-yl]phenyl]methyl]tetrazol-5-yl]-3,4-dihydro-2H-isoquinolin-1-one] | 33 nM | > 200000 nM
[2H]C([2H])(c1ccc(-c2nnc(C(F)F)o2)cn1)n1cc(-c2cccc(NC(=O)N3CCOCC3)c2)nn1 [compound 369, N-[3-[1-[dideuterio-[5-[5-(difluoromethyl)-1,3,4-oxadiazol-2-yl]pyridin-2-yl]methyl]triazol-4-yl]phenyl]morpholine-4-carboxamide] | 17 nM | > 1e+06 nM
[2H]C([2H])(c1ccc(-c2nnc(C(F)F)o2)cc1)n1cc(-c2ccc3nc(N)sc3c2)nn1 [compound 351, 6-[1-[dideuterio-[4-[5-(difluoromethyl)-1,3,4-oxadiazol-2-yl]phenyl]methyl]triazol-4-yl]-1,3-benzothiazol-2-amine] | 21 nM | > 1e+06 nM
Nc1nccc2cc(-c3nnn(Cc4cc(F)c(-c5nnc(C(F)F)o5)cc4F)n3)ccc12 [compound 396, 6-[2-[[4-[5-(difluoromethyl)-1,3,4-oxadiazol-2-yl]-2,5-difluorophenyl]methyl]tetrazol-5-yl]isoquinolin-1-amine] | 60 nM | 1e+06 nM
